Reference: ChEMBL document CHEMBL1159131, “Structural modifications of 6-naphthalene-2-carboxylate retinoids” (Bioorg Med Chem Lett, 1996)
The source made the active and inactive calls. No cut-off for these calls is given here.

Assays:
[1] = target: T1, Retinoic acid receptor alpha (Homo sapiens) (UniProt P10276); assay: Transcriptional activation activity against retinoic acid receptor RAR alpha; Not active
T1 sequence (whole entry): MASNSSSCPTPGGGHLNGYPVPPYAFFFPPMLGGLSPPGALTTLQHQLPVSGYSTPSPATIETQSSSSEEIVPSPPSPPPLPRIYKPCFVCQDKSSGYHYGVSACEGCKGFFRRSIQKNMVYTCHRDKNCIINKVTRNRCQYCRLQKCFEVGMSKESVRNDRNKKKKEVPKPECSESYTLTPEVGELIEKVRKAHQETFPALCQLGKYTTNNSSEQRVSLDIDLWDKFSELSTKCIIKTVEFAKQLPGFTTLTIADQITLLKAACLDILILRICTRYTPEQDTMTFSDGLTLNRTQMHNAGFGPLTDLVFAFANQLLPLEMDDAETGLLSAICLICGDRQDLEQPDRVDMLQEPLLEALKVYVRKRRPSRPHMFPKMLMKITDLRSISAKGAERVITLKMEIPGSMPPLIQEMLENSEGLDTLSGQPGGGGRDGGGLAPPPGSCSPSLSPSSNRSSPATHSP

[2] = target: T1, Retinoic acid receptor alpha (Homo sapiens); assay: Maximum retinoic acid receptor (RAR)-alpha transactivation activity relative to retinoic acid at 10e-6 M
[3] = target: T2, Retinoic acid receptor beta (Homo sapiens) (UniProt P10826); assay: Transactivation activity at retinoic acid receptor beta.
T2 sequence (whole entry): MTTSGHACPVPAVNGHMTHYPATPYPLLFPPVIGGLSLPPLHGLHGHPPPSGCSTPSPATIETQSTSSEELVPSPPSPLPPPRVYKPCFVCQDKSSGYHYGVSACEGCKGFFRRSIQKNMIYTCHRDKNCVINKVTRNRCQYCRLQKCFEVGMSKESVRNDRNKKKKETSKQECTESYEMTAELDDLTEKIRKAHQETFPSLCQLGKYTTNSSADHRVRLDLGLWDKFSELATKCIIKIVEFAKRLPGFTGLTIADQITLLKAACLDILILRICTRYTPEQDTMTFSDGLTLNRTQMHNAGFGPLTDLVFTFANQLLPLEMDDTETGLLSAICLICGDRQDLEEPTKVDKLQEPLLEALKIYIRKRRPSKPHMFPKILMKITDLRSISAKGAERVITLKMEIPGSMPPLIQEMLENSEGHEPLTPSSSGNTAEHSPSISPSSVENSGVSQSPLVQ

[4] = target: T2, Retinoic acid receptor beta (Homo sapiens); assay: Maximum retinoic acid receptor (RAR)-beta transactivation activity relative to retinoic acid at 10e-6 M
[5] = target: T2, Retinoic acid receptor beta (Homo sapiens); assay: Transcriptional activation activity against retinoic acid receptor RAR beta; Not active
[6] = target: T1, Retinoic acid receptor alpha (Homo sapiens); assay: Transcriptional activation activity against retinoic acid receptor RAR alpha
[7] = target: T3, Retinoic acid receptor gamma (Homo sapiens) (UniProt P13631); assay: Transcriptional activation activity against retinoic acid receptor RAR gamma; Not active
T3 sequence (whole entry): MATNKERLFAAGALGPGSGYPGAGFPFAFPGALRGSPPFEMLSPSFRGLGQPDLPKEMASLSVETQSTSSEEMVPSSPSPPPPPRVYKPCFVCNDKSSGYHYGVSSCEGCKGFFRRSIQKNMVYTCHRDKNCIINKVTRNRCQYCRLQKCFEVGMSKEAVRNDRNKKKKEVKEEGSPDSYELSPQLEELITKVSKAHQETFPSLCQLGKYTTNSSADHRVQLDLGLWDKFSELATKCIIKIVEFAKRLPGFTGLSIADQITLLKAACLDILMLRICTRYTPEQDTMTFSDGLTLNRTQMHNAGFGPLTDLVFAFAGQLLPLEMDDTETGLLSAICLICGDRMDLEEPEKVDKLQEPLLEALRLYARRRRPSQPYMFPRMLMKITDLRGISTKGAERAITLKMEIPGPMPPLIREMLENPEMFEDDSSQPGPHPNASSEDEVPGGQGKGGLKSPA

Row | Compound | EC50 ratio [1] | Max [2] | EC50 ratio [3] | Max [4] | EC50 ratio [5] | EC50 ratio [6] | EC50 ratio [7]
1 | Cc1cc2c(cc1C(O)c1ccc3cc(C(=O)O)ccc3c1)C(C)(C)CCC2(C)C (stereo unspecified) | inactive | 0% | 100 | 96% | – | – | –
2 | CC1(C)CCC(C)(C)c2cc(C(O)c3ccc4cc(C(=O)O)ccc4c3)c(O)cc21 (stereo unspecified) | inactive | 0% | – | 18% | inactive | – | –
3 | CC1(C)CCC(C)(C)c2cc(S/C=C/c3ccc(C(=O)O)cc3)ccc21 | – | 118% | 0.8 | 158% | – | 1.3 | –
4 | CC1(C)CCC(C)(C)c2cc([S+]([O-])/C=C/c3ccc(C(=O)O)cc3)ccc21 (stereo unspecified) | – | 42% | 40 | 96% | – | 38 | –
5 | Cc1cc2c(cc1C(=O)c1ccc3cc(C(=O)O)ccc3c1)C(C)(C)CCC2(C)C | – | 26% | 25 | 81% | – | 25 | –
6 | CC1(C)CCC(C)(C)c2cc(C(=O)/C=C/c3ccc(C(=O)O)cc3)ccc21 | – | – | 1.2 | – | – | 0.7 | –
7 | CC1(C)CCC(C)(C)c2cc(C(O)c3ccc4cc(C(=O)O)ccc4c3)ccc21 (stereo unspecified) | – | 0% | – | 77% | – | – | –
8 | COc1c(C(=O)c2ccc3c(c2)C(C)(C)CCC3(C)C)ccc2cc(C(=O)O)ccc12 | inactive | 0% | – | 0% | inactive | – | inactive
9 | CC1(C)CCC(C)(C)c2c1cc(O)c(C(=O)c1ccc3cc(C(=O)O)ccc3c1)c2F | – | 46% | 6.7 | 87% | – | 100 | –
10 | CC1(C)CCC(C)(C)c2cc(Oc3ccc4cc(C(=O)O)ccc4c3)ccc21 | – | 56% | 20 | 120% | – | 63 | –
11 | CC1(C)CCC(C)(C)c2cc(C(=O)c3ccc4cc(C(=O)O)ccc4c3)c(F)cc21 | – | 34% | 15 | 81% | – | 25 | –
12 | CC1(C)CCC(C)(C)c2cc([S+]([O-])c3ccc4cc(C(=O)O)ccc4c3)ccc21 (stereo unspecified) | inactive | 0% | 167 | 52% | – | – | –
13 | CC1(C)CCC(C)(C)c2c(F)cc(C(O)c3ccc4cc(C(=O)O)ccc4c3)cc21 (stereo unspecified) | inactive | 0% | – | 0% | inactive | – | inactive
14 | CC1(C)CCC(C)(C)c2cc(C(=O)c3ccc4cc(C(=O)O)ccc4c3O)ccc21 | inactive | 0% | – | 0% | inactive | – | inactive
15 | CC1(C)CCC(C)(C)c2cc(C(O)c3ccc4cc(C(=O)O)ccc4c3)c(F)cc21 (stereo unspecified) | inactive | 0% | 133 | 30% | – | – | –
16 | COc1c(C(=O)c2ccc3cc(C(=O)O)ccc3c2)ccc2c1C(C)(C)CCC2(C)C | inactive | 0% | – | 0% | inactive | – | inactive
17 | CC1(C)CCC(C)(C)c2cc(Nc3ccc4cc(C(=O)O)ccc4c3)ccc21 | – | 27% | 17 | 92% | – | 25 | –
18 | CC1(C)CCC(C)(C)c2c(F)cc(C(=O)c3ccc4cc(C(=O)O)ccc4c3)cc21 | – | 63% | 4 | 81% | – | 10 | –
19 | CC1(C)CCC(C)(C)c2cc(S(=O)(=O)c3ccc4cc(C(=O)O)ccc4c3)ccc21 | inactive | 0% | 133 | 32% | – | – | –
20 | CC1(C)CCC(C)(C)c2cc(C(=O)c3ccc4cc(C(=O)O)ccc4c3)c(O)cc21 | – | 44% | 7.5 | 76% | – | 25 | –
21 | CC1(C)CCC(C)(C)c2c1ccc(C(O)c1ccc3cc(C(=O)O)ccc3c1)c2F (stereo unspecified) | inactive | 0% | 133 | 74% | – | – | –
22 | CC1(C)CCC(C)(C)c2cc(Sc3ccc4cc(C(=O)O)ccc4c3)ccc21 | – | 45% | 10 | 88% | – | 25 | –
23 | CC1(C)CCC(C)(C)c2cc(S(=O)(=O)/C=C/c3ccc(C(=O)O)cc3)ccc21 | inactive | 0% | 200 | 35% | – | – | –
24 | COc1cc2c(cc1C(=O)c1ccc3cc(C(=O)O)ccc3c1)C(C)(C)CCC2(C)C | – | 23% | 14 | 61% | – | 8 | –
